# Oligonucleotides are written 5' to 3', each unit as a sugar letter and its base; * is a phosphorothioate linkage, no mark a phosphodiester; rarer units and linkages stand in square brackets, end groups in braces. Plain capitals give the bases only. l = locked nucleic acid (LNA); [5mC] = 5-methylcytosine; d = 2'-deoxy (DNA)
# What was measured:
# [1] = Oligonucleotide content in cynomolgus monkey tissues (4 weeks repeat dose study); assay type: in vivo, cynomolgus monkeys; conditions: i.v. twice weekly for four weeks, then 4 weeks untreated
# Experimental: In an i.v. 4 weeks repeat dose toxicity study in cynomolgus monkeys SEQ ID NO. 2 was administered at doses of 0, 6, 15 and 60 mg/kg/occasion twice weekly for four weeks. In the groups of animals receiving 0, 15 or 60 mg/kg/occasion some animals were followed for a recovery period of 4 weeks without treatment.
# Tissues including liver and kidney samples were snap frozen and stored at −70° C. for subsequent analysis.
# Tissues (˜100 mg) is weighed off (tissue is kept on dry-ice before and after weighing). 500 μl extraction buffer containing proteinase K (1 mg/ml) is added. The tissue is homogenized mechanically and the homogenate is incubated over night at 37° C.
# Reference samples are prepared by dissolving SEQ ID NO. 2 in extraction buffer at the relevant concentration range. Exactly 100 mg liver tissue from un-treated animals is weighed off (kept on dry-ice before and after weighing). Extraction buffer (with proteinase K, 1 mg/ml) containing the reference material is added to the tissue samples to a total volume of 0.5 ml. The tissue is mechanically homogenized and is incubated over night at 37° C. The detection signal of SEQ ID NO. 2 from these samples is used to prepare a standard curve covering the lowest and the highest concentrations found in the treated animals.
# Tissue samples are transferred to 2 ml microtubes with screw caps. […]
# Survivin mRNA = assay: Tumour analysis: Survivin mRNA after intratumoural injection; assay type: in vivo, Balb/cA-nu mice; conditions: 25 mg/kg intratumoral, 6 times over 2 weeks, sampling 24 hours after last dose, versus saline
# Experimental: (§1) Model: PC-3 human prostate cancer cells (ECACC) are mixed with Matrigel and injected s.c. into both flanks of female Balb/cA-nu mice on Day 0.
# (§2) Administration: Oligonucleotides i.p. (see FIG. 8) or intratumoural (see FIG. 9), Taxol i.v., all according to schedule
# Total RNA isolation: Approximately 20 mg tumour tissue was homogenized in 400 μl RTL buffer (Qiagen) supplemented with 1% mercaptoethanol. Total RNA was isolated using RNeasy mini kit (Qiagen) according to the manufacture's instructions.
# cDNA synthesis: First strand synthesis was performed using OmniScript Reverse Transcriptase kit according to the manufacturer's instructions (Qiagen). […] Protein levels were analysed on individual tumours by western blotting (see FIG. 9). Real time PCR analysis: To determine the relative Survivin mRNA level treated and untreated tumours, the generated cDNA was used in quantitative PCR analysis using an iCycler from BioRad. The cDNA was diluted 5-fold and 8 μl was mixed with 52 μl Taqman probe master mix containing 30 μl Platinum Quantitative PCR SuperMix UDG 2×PCR master mix (Invitrogen), 3 μl 20× Taqman probe and primer mix (forward primer: 5′-[…]-3′ (SEQ ID NO. 29), final 0.9 μM. Reverse primer: 5′-[…]-3′ (SEQ ID NO. 30), final 0.6 μM and taqman probe: FAM-5′-[…]-TAMRA-3′ (SEQ ID NO. 31), final 0.1 μM) and 19 μl H2O. […]
# [2] = test system: PC-3 human prostate cancer cells; assay: PC3 xenograft tumour growth inhibition in nude mice; assay type: in vivo, Balb/cA-nu mice; conditions: combined with Taxol, dose schedules A and B, after 27 days, versus single agent treatment or saline
# Experimental: as §1
# Dosing: Saline solution of SEQ ID NO. 2 according to schedule, 2 mg/ml working solution, dosing volume 10 ml/kg; Taxol was used in the clinical formulation. The animals were dosed according to the average group weight on Day 0.
# as §2
# Observations: Mortality (daily), body weight (twice per week),
# Tumour volume: During the experiment, tumour volume is measured twice per week and calculated according to the formula (L×D^2×0.5), where L represents the largest diameter and D the tumour diameter perpendicular to L (mm).
# Antitumour activity: Mean tumour weight of treated tumours will be compared with control group.
# End of study: The animals will be sacrificed by cervical dislocation. Tumours, livers and spleens will be weighed.
substance,measurement,setting,value
5′-^MeCsTs^MeCsAsastscscsastsgsgs^MeCsAsGsc-3′ (l[5mC]*lT*l[5mC]*lA*dA*dT*dC*dC*dA*dT*dG*dG*l[5mC]*lA*lG*dC) [SEQ ID NO. 2],Content in liver of recovery animals,[1],detectable
same,Survivin mRNA level in tumours,Survivin mRNA,reduced levels of both mRNA and Survivin protein
same,Tumour weight,[2],Tumour weight reduction
